Earlier results, collected in patent publication US20210315249A1, “Cannabis-Infused Product with Controlled Cannabinoid Profile User Experience” (HEXO […]., priority 2018, published 2021).
Where two headings read alike, the source gives them in different places.

Assays:
[1] = rats; solution in MCT oil or emulsion with droplet size 160 nm or 710 nm
[2] = dogs; emulsion droplet size 119 nm or 52 nm

SMILES | bioavailability [1] | bioavailability [2]
COc1nc(C(Cl)(Cl)Cl)c(Cl)c(OC)c1Cl [penclomedine] | comparable bioavailability | 
CCCCN(CCCC)CCC(O)c1cc2c(Cl)cc(Cl)cc2c2cc(C(F)(F)F)ccc12 (centres unmarked) [halofantrine] |  | comparable bioavailability
